# Literature values in patent US6583130B1, “C13-substituted estra-1,3,5,(10)-trien-3-yl sulfamates, methods of preparing same, and pharmaceutical compositions containing these compounds” (Schering AG, priority 1999, dated 2003).
# Tests used:
# sulfatase = target: T1, sulfatase (Homo sapiens, UniProt P08842); settings: as described in the cited literature
# T1 sequence (P08842 22-583): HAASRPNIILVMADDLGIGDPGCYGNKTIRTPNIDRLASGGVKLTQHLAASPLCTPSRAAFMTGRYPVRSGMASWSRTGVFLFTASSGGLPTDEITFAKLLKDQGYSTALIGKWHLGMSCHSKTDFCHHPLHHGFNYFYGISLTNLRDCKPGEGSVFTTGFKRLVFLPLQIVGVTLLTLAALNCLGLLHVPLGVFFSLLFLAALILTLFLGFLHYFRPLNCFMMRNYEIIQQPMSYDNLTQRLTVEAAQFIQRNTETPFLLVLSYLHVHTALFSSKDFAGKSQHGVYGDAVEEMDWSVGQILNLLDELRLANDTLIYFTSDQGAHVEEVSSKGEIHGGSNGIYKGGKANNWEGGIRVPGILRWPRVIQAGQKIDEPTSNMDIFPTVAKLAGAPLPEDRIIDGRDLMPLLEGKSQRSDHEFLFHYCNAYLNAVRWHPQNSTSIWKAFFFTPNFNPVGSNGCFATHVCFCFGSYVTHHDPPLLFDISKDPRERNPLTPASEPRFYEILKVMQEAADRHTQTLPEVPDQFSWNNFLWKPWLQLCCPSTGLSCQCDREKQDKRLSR
# uterine growth = settings: ovariectomized rats; Purohit et al. 1998
# estrogenic effect = settings: as described in the cited literature (Elger et al. 1995; WO 97/14712)
Structure (SMILES),sulfatase inhibition (sulfatase),estrogenic effect on uterine growth (uterine growth),estrogenic effect (estrogenic effect)
COc1cc2c(cc1OS(N)(=O)=O)CC[C@@H]1[C@@H]2CC[C@]2(C)C(=O)CC[C@@H]12 [2-methoxyestrone 3-O-sulfamate],potent sulfatase inhibitor,does not exhibit any estrogenic effect,–
CC(=O)NS(=O)(=O)Oc1ccc2c(c1)CC[C@@H]1[C@@H]2CC[C@]2(C)C(=O)CC[C@@H]12 [N-acetylestrone 3-O-sulfamate],sulfatase inhibitor,–,strong estrogenic effect
C[C@]12CC[C@@H]3c4ccc(OS(N)(=O)=O)cc4CC[C@H]3[C@@H]1CCC2=O [estrone 3-O-sulfamate],strong sulfatase inhibitor,–,strong estrogenic effect
